Legend:
[1] = Permeability of the compound across human Caco2 cells; type: ADME, cell-based; conditions: Caco-2, read-out: permeability
Protease = Protease (Human immunodeficiency virus 1, UniProt Q9YQ12); assay: Inhibition of HIV1 protease expressed in Escherichia coli by fluorometric assay
[2] = Cytotoxicity against human MT4 cells after 5 days by XTT assay; type: cell-based
[3] = system: Human immunodeficiency virus; assay: Antiviral activity against HIV infected in human MT4 cells assessed as inhibition of virus-induced cytopathogenic effect by XTT assay; type: functional, organism-based; conditions: Human immunodeficiency virus 1, MT4

Chain of Protease (Q9YQ12 whole entry): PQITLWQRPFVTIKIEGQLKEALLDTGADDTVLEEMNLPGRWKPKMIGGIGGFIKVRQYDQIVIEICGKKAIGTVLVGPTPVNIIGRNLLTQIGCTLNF

SMILES | Papp [1] | Ki (Protease) | CC50 at 120 h [2] | EC50 [3]
COC(=O)N[C@H](C(=O)NN(CCC[C@@]1(O)Cc2ccc(cc2)C/C=C\CNC(=O)[C@H](C(C)C)NC1=O)Cc1ccc(Br)cc1)C(C)(C)C | 9 ×10⁻⁶ cm/s | 0.0031 µM | > 50 µM | 0.37 µM
C=CCNC(=O)[C@@H](NC(=O)[C@@](O)(CCCN(Cc1ccc(Br)cc1)NC(=O)[C@@H](NC(=O)OC)C(C)(C)C)Cc1ccc(CC=C)cc1)C(C)(C)C | 44 ×10⁻⁶ cm/s | 0.037 µM | > 50 µM | 7.5 µM
CNC(=O)[C@@H](NC(=O)[C@@](O)(CCCN(Cc1ccc(Br)cc1)NC(=O)[C@@H](NC(=O)OC)C(C)(C)C)Cc1ccccc1)C(C)C | – | – | > 10 µM | 2.1 µM
C=CCNC(=O)[C@@H](NC(=O)[C@](O)(CCCN(Cc1ccc(Br)cc1)NC(=O)[C@@H](NC(=O)OC)C(C)(C)C)Cc1ccc(Br)cc1)C(C)(C)C | – | 0.98 µM | 21 µM | > 50 µM
C=CCNC(=O)[C@@H](NC(=O)[C@@](O)(CCCN(Cc1ccc(Br)cc1)NC(=O)[C@@H](NC(=O)OC)C(C)(C)C)Cc1ccc(CC=C)cc1)C(C)C | 44 ×10⁻⁶ cm/s | 0.03 µM | 24 µM | 6 µM
COC(=O)N[C@H](C(=O)NN(CCC[C@@]1(O)Cc2ccc(cc2)/C=C\CNC(=O)[C@H](C(C)(C)C)NC1=O)Cc1ccc(Br)cc1)C(C)(C)C | 31 ×10⁻⁶ cm/s | 0.005 µM | 40 µM | 3.3 µM
C=CCNC(=O)[C@@H](NC(=O)[C@@](O)(CCCN(Cc1ccc(Br)cc1)NC(=O)[C@@H](NC(=O)OC)C(C)(C)C)Cc1ccc(C=C)cc1)C(C)C | – | 0.015 µM | 25 µM | 6.9 µM
COC(=O)N[C@H](C(=O)NN(CCC[C@@]1(O)Cc2ccc(cc2)C/C=C\CNC(=O)[C@H](C(C)(C)C)NC1=O)Cc1ccc(Br)cc1)C(C)(C)C | 10 ×10⁻⁶ cm/s | 0.0042 µM | 30 µM | 1 µM
C=CCNC(=O)[C@@H](NC(=O)[C@@](O)(CCCN(Cc1ccc(Br)cc1)NC(=O)[C@@H](NC(=O)OC)C(C)(C)C)Cc1ccc(Br)cc1)C(C)C | – | 0.011 µM | 22 µM | 5.8 µM
C=CCNC(=O)[C@@H](NC(=O)[C@](O)(CCCN(Cc1ccc(Br)cc1)NC(=O)[C@@H](NC(=O)OC)C(C)(C)C)Cc1ccc(C=C)cc1)C(C)(C)C | – | 0.72 µM | 25 µM | > 50 µM
C=CCNC(=O)[C@@H](NC(=O)[C@@](O)(CCCN(Cc1ccc(Br)cc1)NC(=O)[C@@H](NC(=O)OC)C(C)(C)C)Cc1ccc(C=C)cc1)C(C)(C)C | 45 ×10⁻⁶ cm/s | 0.016 µM | 44 µM | 5.3 µM
C=CCNC(=O)[C@@H](NC(=O)[C@](O)(CCCN(Cc1ccc(Br)cc1)NC(=O)[C@@H](NC(=O)OC)C(C)(C)C)Cc1ccc(Br)cc1)C(C)C | – | 1 µM | 4.5 µM | > 50 µM
C=CCNC(=O)[C@@H](NC(=O)[C@@](O)(CCCN(Cc1ccc(Br)cc1)NC(=O)[C@@H](NC(=O)OC)C(C)(C)C)Cc1ccc(Br)cc1)C(C)(C)C | – | 0.01 µM | 29 µM | 2.9 µM
C=CCNC(=O)[C@@H](NC(=O)[C@](O)(CCCN(Cc1ccc(Br)cc1)NC(=O)[C@@H](NC(=O)OC)C(C)(C)C)Cc1ccc(C=C)cc1)C(C)C | – | 0.78 µM | 5.8 µM | > 50 µM

Source: ChEMBL document CHEMBL3085680, “Design and synthesis of P1-P3 macrocyclic tertiary-alcohol-comprising HIV-1 protease inhibitors” (J Med Chem, 2013)
